The values below come from US9237747B2, “Herbicidal compositions comprising 4-amino-3-chloro-5-fluoro-6-(4-chloro-2-fluoro-3-methoxyphenyl) pyridine-2-carboxylic acid or a derivative thereof and insecticides” (priority 2013, dated 2016).

Read-outs that look alike come from different tables or passages of the source.

For one experiment, the system named is ECHCG. It counts as in vivo, Echinochloa crus-galli. As for the experimental part: (§1) Seeds or nutlets of the desired test plant species were planted in a soil matrix prepared by mixing a loam or sandy loam soil (e.g., 28.6 percent silt, 18.8 percent clay, and 52.6 percent sand, with a pH of about 5.8 and an organic matter content of about 1.8 percent) and calcareous grit in an 80 to 20 ratio. The soil matrix was contained in plastic pots with a volume of 1 quart and a surface area of 83.6 square centimeters (cm^2). […] The plants were grown for 8-22 days in a greenhouse with an approximate 14 hour (h) photoperiod which was maintained at about 29° C. during the day and 26° C. during the night. Nutrients (Peters Excel® 15-5-15 5-Ca 2-Mg and iron chelate) were applied in the irrigation solution as needed and water was added on a regular basis. Supplemental lighting was provided with overhead metal halide 1000-Watt lamps as necessary. The plants were employed for testing when they reached the first through fourth true leaf stage.
(§2) Treatments consisted of the acid or esters of 4-amino-3-chloro-6-(4-chloro-2-fluoro-3-methoxyphenyl)-5-fluoropyridine-2-carboxylic acid (Compound A), each formulated as an SC (suspension concentrate), and various insecticidal components alone and in combination. Forms of compound A were applied on an acid equivalent basis.
(§3) For treatments comprised of formulated compounds, measured amounts of compounds were placed individually in 25 mL glass vials and diluted in a volume of 1.25% volume per volume (v/v) Agri-Dex® crop oil concentrate to obtain 12× stock solutions. […] Application solutions were prepared by adding an appropriate amount of each stock solution (e.g., 1 mL) and diluted to the appropriate final concentrations with the addition of […] of an aqueous mixture of 1.25% (v/v) crop oil concentrate so that the final spray solutions contained 1.25+/−0.05% (v/v) crop oil concentrate.
(§4) As required, additional water and/or 97:3 v/v acetone/DMSO was added to individual application solutions so that the final acetone and DMSO concentrations of the application solutions being compared were 8.1% and 0.25%, respectively.
(§5) All stock solutions and applications solutions were visually inspected for compound compatibility prior to application. Spray solutions were applied to the plant material with an overhead Mandel track sprayer equipped with 8002E nozzles calibrated to deliver 187 L/ha over an application area of 0.503 square meters (m^2) at a spray height of 18 to 20 inches (46 to 50 cm) above average plant canopy height. Control plants were sprayed in the same manner with the solvent blank.
(§6) The treated plants and control plants were placed in a greenhouse as described above and watered by sub-irrigation to prevent wash-off of the test compounds. After approximately 3 weeks, the condition of the test plants as compared to that of the untreated plants was determined visually and scored on a scale of 0 to 100 percent where 0 corresponds to no injury or growth inhibition and 100 corresponds to complete kill.
(§7) Colby's equation was used to determine the herbicidal effects expected from the mixtures (Colby, S. R. Calculation of the synergistic and antagonistic response of herbicide combinations. Weeds 1967, 15, 20-22.).
(§8) The following equation was used to calculate the expected activity of mixtures containing two active ingredients, A and B: Expected=A+B−(A×B/100)

In the next experiment the test system is BRAPP. As to the kind of experiment: Postemergence foliar-applied weed control, direct-seeded rice (greenhouse). It counts as in vivo, Brachiaria platyphylla.
Source text: (§9) Seeds or nutlets of the desired test plant species were planted in a soil matrix prepared by mixing a loam or sandy loam soil (e.g., 28.6 percent silt, 18.8 percent clay, and 52.6 percent sand, with a pH of about 5.8 and an organic matter content of about 1.8 percent) and calcareous grit in an 80 to 20 ratio. The soil matrix was contained in plastic pots with a volume of 1 quart and a surface area of 83.6 square centimeters (cm^2). When required to ensure good germination and healthy plants, a fungicide treatment and/or other chemical or physical treatment was applied. The plants were grown for 8-22 days in a greenhouse with an approximate 14 hour (h) photoperiod which was maintained at about 29° C. during the day and 26° C. during the night. Nutrients (Peters Excel® 15-5-15 5-Ca 2-Mg and iron chelate) were applied in the irrigation solution as needed and water was added on a regular basis. Supplemental lighting was provided with overhead metal halide 1000-Watt lamps as necessary. The plants were employed for testing when they reached the first through fourth true leaf stage.
as §2
(§10) Treatment requirements were calculated based upon the rates being tested, the concentration of active ingredient or acid equivalent in the formulation, and a 12 milliliter (mL) application volume at a rate of 187 liters per hectare (L/ha).
as §3, §4, §5, §6, §7, §8

The test system of another experiment is LEFFA. The experiment is described as above. The format is in vivo, Leptochloa fascicularis.
Source text: as §9, §2, §10, §3, §4, §5, §6, §7, §8

Another experiment has as its system IPOHE. It counts as in vivo, Ipomoea hederacea. The procedure: as §1, §2, §3, §4, §5, §6, §7, §8
In a further experiment the test system is ECHCO. As to the kind of experiment: Postemergence foliar-applied weed control, direct-seeded rice (greenhouse). It counts as in vivo, Echinochloa colonum. The procedure:
as §1, §2, §3, §4, §5, §6, §7, §8

Another experiment relates to LEFCH. The experiment in a line: whole plant or invertebrate. It counts as in vivo, Leptochloa chinensis. As for the experimental part:
as §1, §2, §3, §4, §5, §6, §7, §8

Another experiment relates to DIGSA. The format is in vivo, Digitaria sanguinalis. The procedure:
as §1, §2, §3, §4, §5, §6, §7, §8

As for `CCOP(=S)(OCC)Oc1nc(Cl)c(Cl)cc1Cl` [Chlorpyrifos, O,O-diethyl O-3,5,6-trichloro-2-pyridyl phosphorothioate], the “Visual Weed Control (%) - 20 DAA ECHCG Obs” value in the experiment with ECHCG (180 g ai/ha alone), in the experiment on ECHCG (360 g ai/ha alone) and in the experiment with ECHCG (720 g ai/ha alone) was 0% in each case. Moreover, the “Visual Weed Control (%) - 20 DAA BRAPP Obs” value in the experiment on BRAPP (180 g ai/ha alone), in the experiment with BRAPP (360 g ai/ha alone) and in the experiment on BRAPP (720 g ai/ha alone) was 0% throughout. In addition, the “Visual Weed Control (%) - 22 DAA LEFFA Obs” value with LEFFA (180 g ai/ha alone), with LEFFA (360 g ai/ha alone) and in the experiment with LEFFA (720 g ai/ha alone) was 0% throughout. In addition, the entries for the “Visual Weed Control (%) - 20 DAA IPOHE Obs” value in the experiment with IPOHE (180 g ai/ha alone), in the experiment on IPOHE (360 g ai/ha alone) and in the experiment with IPOHE (720 g ai/ha alone) were 10%, 10% and 0%, respectively. For the same molecule, the “Visual Weed Control (%) - 20 DAA ECHCO Obs” value with ECHCO (180 g ai/ha alone), in the experiment on ECHCO (360 g ai/ha alone) and in the experiment on ECHCO (720 g ai/ha alone) was 0% each time. Also, the “Visual Weed Control (%) - 20 DAA LEFCH Obs” value in the experiment with LEFCH (180 g ai/ha alone), with LEFCH (360 g ai/ha alone), with LEFCH (500 g ai/ha alone) and in the experiment on LEFCH (720 g ai/ha alone) was 0% each time. For the same molecule, the pest or weed control at 720 g/ha in the experiment on LEFCH (Dinebra chinensis, post-emergence, 528 h, 720 g ai/ha alone, read-out: Visual Weed Control (%) - 22 DAA LEFCH Obs) is 5%. In addition, the “Visual Weed Control (%) - 20 DAA DIGSA Obs” value in the experiment on DIGSA (180 g ai/ha alone), with DIGSA (360 g ai/ha alone), in the experiment on DIGSA (500 g ai/ha alone) and in the experiment on DIGSA (720 g ai/ha alone) was 0% throughout. Moreover, the “Visual Weed Control (%) - 22 DAA DIGSA Obs” value with DIGSA (180 g ai/ha alone), with DIGSA (360 g ai/ha alone) and in the experiment on DIGSA (720 g ai/ha alone) was 0% throughout.

For `N#Cc1nn(-c2c(Cl)cc(C(F)(F)F)cc2Cl)c(N)c1[S+]([O-])C(F)(F)F` [Fipronil, 5-amino-[2,6-dichloro-4-(trifluoromethyl)phenyl]-4-[(1R,S)-(trifluoromethyl)sulfinyl]-1H-pyrazole-3-carbonitrile, reference compound], the “Visual Weed Control (%) - 20 DAA ECHCG Obs” value in the experiment on ECHCG (50 g ai/ha alone) amounted to 0%. For the same molecule, the “Visual Weed Control (%) - 20 DAA BRAPP Obs” value with BRAPP (50 g ai/ha alone) is recorded as 0%.

`COP(N)(=O)SC` (centres unmarked) [Methamidophos, O,S-dimethyl phosphoramidothioate, reference compound]: the “Visual Weed Control (%) - 19 DAA IPOHE Obs” value with IPOHE (112 g ai/ha alone) and with IPOHE (224 g ai/ha alone) was 0% in each case. Also, the “Visual Weed Control (%) - 19 DAA ECHCO Obs” value with ECHCO (112 g ai/ha alone) and in the experiment with ECHCO (224 g ai/ha alone) was 0% each time.

Turning to spinetoram, the “Visual Weed Control (%) - 19 DAA ECHCO Obs” value with ECHCO (30 g ai/ha alone), with ECHCO (60 g ai/ha alone) and with ECHCO (120 g ai/ha alone) was 0% in each case. Moreover, the “Visual Weed Control (%) - 19 DAA LEFCH Obs” value with LEFCH (30 g ai/ha alone), with LEFCH (60 g ai/ha alone) and in the experiment with LEFCH (120 g ai/ha alone) was 0% in each case.

In the case of spinosad [reference compound], the “Visual Weed Control (%) - 21 DAA IPOHE Obs” value with IPOHE (70 g ai/ha alone), with IPOHE (140 g ai/ha alone) and with IPOHE (280 g ai/ha alone) was 0% each time. The “Visual Weed Control (%) - 21 DAA LEFCH Obs” value in the experiment with LEFCH (140 g ai/ha alone) and with LEFCH (280 g ai/ha alone) was 0% each time.
